Conditions: 283.15 K, Liquid, Vibrating tube method

CCCC(=O)OCC(COC(=O)CCC)(COC(=O)CCC)COC(=O)CCC [pentaerythritol tetrabutyrate]
Conditions | mass density [kg/m3]
26946 kPa | 1074.1
26974 kPa | 1074.2
26998 kPa | 1074.3
27022 kPa | 1074.2
27050 kPa | 1074.3
27074 kPa | 1074.2
27098 kPa | 1074.2
27122 kPa | 1074.3
27151 kPa | 1074.2
27174 kPa | 1074.3
27198 kPa | 1074.2
27228 kPa | 1074.3
27248 kPa | 1074.3
27267 kPa | 1074.4
27296 kPa | 1074.4
27330 kPa | 1074.3
27354 kPa | 1074.3
27384 kPa | 1074.5
27408 kPa | 1074.4
27433 kPa | 1074.5
27463 kPa | 1074.4
27488 kPa | 1074.4
27512 kPa | 1074.4
27542 kPa | 1074.4
27566 kPa | 1074.6
27592 kPa | 1074.5
27622 kPa | 1074.5
27646 kPa | 1074.5
27672 kPa | 1074.6
27701 kPa | 1074.7
27726 kPa | 1074.6
27752 kPa | 1074.6
27782 kPa | 1074.5
27808 kPa | 1074.6
27833 kPa | 1074.6
27863 kPa | 1074.6
27889 kPa | 1074.6
27915 kPa | 1074.7
27941 kPa | 1074.7
27972 kPa | 1074.8
27998 kPa | 1074.6
28024 kPa | 1074.7
28049 kPa | 1074.8
28080 kPa | 1074.8
28101 kPa | 1074.7
28127 kPa | 1074.7
28164 kPa | 1074.8
28190 kPa | 1074.8
28217 kPa | 1074.7
28249 kPa | 1074.7
28276 kPa | 1074.8
28303 kPa | 1074.9
28329 kPa | 1074.9
28356 kPa | 1075
28388 kPa | 1074.9
28415 kPa | 1074.9
28447 kPa | 1075
28474 kPa | 1075.1
28500 kPa | 1075
28527 kPa | 1075
28559 kPa | 1075.1
28586 kPa | 1075
28618 kPa | 1075.1
28646 kPa | 1075.1
28674 kPa | 1075.2
28706 kPa | 1075.1
28733 kPa | 1075
28760 kPa | 1075.2
28787 kPa | 1075.2
28820 kPa | 1075.2
28847 kPa | 1075.2
28881 kPa | 1075.2
28908 kPa | 1075.1
28936 kPa | 1075.1
28969 kPa | 1075.2
28985 kPa | 1075.3
28997 kPa | 1075.2
29011 kPa | 1075.2
29026 kPa | 1075.1
29043 kPa | 1075.2
29054 kPa | 1075.3
29088 kPa | 1075.3
29116 kPa | 1075.3
29146 kPa | 1075.2
29150 kPa | 1075.4
29179 kPa | 1075.3
29207 kPa | 1075.3
29240 kPa | 1075.3
29253 kPa | 1075.5
29268 kPa | 1075.4
29296 kPa | 1075.4
29322 kPa | 1075.4
29330 kPa | 1075.5
29357 kPa | 1075.4
29385 kPa | 1075.6
29417 kPa | 1075.4
29442 kPa | 1075.4
29443 kPa | 1075.6
29464 kPa | 1075.4
29471 kPa | 1075.6
29482 kPa | 1075.7
29505 kPa | 1075.5
29534 kPa | 1075.5
29557 kPa | 1075.5
29562 kPa | 1075.6
29590 kPa | 1075.5
29625 kPa | 1075.6
29628 kPa | 1075.6
29649 kPa | 1075.5
29655 kPa | 1075.6
29683 kPa | 1075.6
29711 kPa | 1075.5
29718 kPa | 1075.7
29748 kPa | 1075.7
29778 kPa | 1075.5
29786 kPa | 1075.7
29808 kPa | 1075.6
29843 kPa | 1075.7
29859 kPa | 1075.7
29872 kPa | 1075.7
29901 kPa | 1075.7
29931 kPa | 1075.8
29943 kPa | 1075.7
29966 kPa | 1075.7
29996 kPa | 1075.8
30016 kPa | 1075.8
30031 kPa | 1075.7
30034 kPa | 1075.7
30037 kPa | 1075.8
30045 kPa | 1075.9
30052 kPa | 1075.8
30061 kPa | 1075.8
30091 kPa | 1075.8
30121 kPa | 1075.8
30158 kPa | 1075.9
30189 kPa | 1075.9
30208 kPa | 1075.9
30219 kPa | 1075.9
30250 kPa | 1075.8
30282 kPa | 1076
30285 kPa | 1075.9
30316 kPa | 1076
30325 kPa | 1076
30346 kPa | 1075.9
30381 kPa | 1076
30411 kPa | 1075.9

From the NIST ThermoML archive (doi:10.1021/je060271a)
